Test results as given in PubChem BioAssay AID1919002 (Molecular Pharmacology Branch, DTP, NCI, 2023).

System: 743489-274-T-PDC complex spheroid growth
Test: Anticancer human tumor 743489-274-T-PDC patient-derived renal cell carcinoma cell line growth inhibition [AhR]
Conditions: for IC50: curve of first compound; for viability, T/C: stronger effect = lower value
Summary of the method: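 Complex tumor spheroids co-cultured with HUVEC and human MSC stroma; AhR antagonists tested in combination with standard-of-care and investigational agents. Top concentration at or near clinical Cmax (else 10 microM), half-log dilutions; growth expressed as percent test/control.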

[1] = second compound 0.1 µM, first compound 0.0316 µM
[2] = second compound 0.1 µM, first compound 0.1 µM
[3] = second compound 0.1 µM, first compound 0.316 µM
[4] = second compound 0.1 µM, first compound 1 µM
[5] = second compound 0.1 µM, first compound 3.16 µM
[6] = second compound 0.1 µM, first compound 10 µM
[7] = second compound 0.316 µM, first compound 0.0316 µM
[8] = second compound 0.316 µM, first compound 0.1 µM
[9] = second compound 0.316 µM, first compound 0.316 µM
[10] = second compound 0.316 µM, first compound 1 µM
[11] = second compound 0.316 µM, first compound 3.16 µM
[12] = second compound 0.316 µM, first compound 10 µM
[13] = second compound 1 µM, first compound 0.0316 µM
[14] = second compound 1 µM, first compound 0.1 µM
[15] = second compound 1 µM, first compound 0.316 µM
[16] = second compound 1 µM, first compound 1 µM
[17] = second compound 1 µM, first compound 3.16 µM
[18] = second compound 1 µM, first compound 10 µM
[19] = second compound 3.16 µM, first compound 0.0316 µM
[20] = second compound 3.16 µM, first compound 0.1 µM
[21] = second compound 3.16 µM, first compound 0.316 µM
[22] = second compound 3.16 µM, first compound 1 µM
[23] = second compound 3.16 µM, first compound 3.16 µM
[24] = second compound 3.16 µM, first compound 10 µM
[25] = second compound 10 µM, first compound 0.0316 µM
[26] = second compound 10 µM, first compound 0.1 µM
[27] = second compound 10 µM, first compound 0.316 µM
[28] = second compound 10 µM, first compound 1 µM
[29] = second compound 10 µM, first compound 3.16 µM
[30] = second compound 10 µM, first compound 10 µM
[31] = second compound 0.1 µM, first compound 0.00949 µM
[32] = second compound 0.1 µM, first compound 0.03 µM
[33] = second compound 0.1 µM, first compound 0.0949 µM
[34] = second compound 0.1 µM, first compound 0.3 µM
[35] = second compound 0.316 µM, first compound 0.00949 µM
[36] = second compound 0.316 µM, first compound 0.03 µM
[37] = second compound 0.316 µM, first compound 0.0949 µM
[38] = second compound 0.316 µM, first compound 0.3 µM
[39] = second compound 1 µM, first compound 0.00949 µM
[40] = second compound 1 µM, first compound 0.03 µM
[41] = second compound 1 µM, first compound 0.0949 µM
[42] = second compound 1 µM, first compound 0.3 µM
[43] = second compound 3.16 µM, first compound 0.00949 µM
[44] = second compound 3.16 µM, first compound 0.03 µM
[45] = second compound 3.16 µM, first compound 0.0949 µM
[46] = second compound 3.16 µM, first compound 0.3 µM
[47] = second compound 10 µM, first compound 0.00949 µM
[48] = second compound 10 µM, first compound 0.03 µM
[49] = second compound 10 µM, first compound 0.0949 µM
[50] = second compound 10 µM, first compound 0.3 µM
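Note: spheroids exposed to agents for 7 days before readout.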
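Throughout, for viability, T/C: 100% = DMSO vehicle control wells.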

CC1(C)CCC(CN2CCN(c3ccc(C(=O)NS(=O)(=O)c4ccc(NCC5CCOCC5)c([N+](=O)[O-])c4)c(Oc4cnc5[nH]ccc5c4)c3)CC2)=C(c2ccc(Cl)cc2)C1 + Cc1ccccc1N=Nc1ccc(NC(=O)c2ccnn2C)c(C)c1
IC50 (second compound 0.1 µM): > 10 µM | IC50 (second compound 0.316 µM): > 10 µM | IC50 (second compound 1 µM): > 10 µM | IC50 (second compound 3.16 µM): > 10 µM | IC50 (second compound 10 µM): > 10 µM | viability, T/C [1]: 91.9% | viability, T/C [2]: 92.9% | viability, T/C [3]: 93.9% | viability, T/C [4]: 94.7% | viability, T/C [5]: 96.1% | viability, T/C [6]: 94.3% | viability, T/C [7]: 95.7% | viability, T/C [8]: 94.9% | viability, T/C [9]: 97.5% | viability, T/C [10]: 81.8% | viability, T/C [11]: 87.5% | viability, T/C [12]: 81.6% | viability, T/C [13]: 89.8% | viability, T/C [14]: 88.4% | viability, T/C [15]: 99.6% | viability, T/C [16]: 99.2% | viability, T/C [17]: 89.1% | viability, T/C [18]: 78.3% | viability, T/C [19]: 90.1% | viability, T/C [20]: 91% | viability, T/C [21]: 93.8% | viability, T/C [22]: 85.6% | viability, T/C [23]: 75.5% | viability, T/C [24]: 81.8% | viability, T/C [25]: 84.8% | viability, T/C [26]: 85.2% | viability, T/C [27]: 90.1% | viability, T/C [28]: 80% | viability, T/C [29]: 104% | viability, T/C [30]: 82.1%

CC1COCCN1c1cc(C2(S(C)(=N)=O)CC2)nc(-c2ccnc3[nH]ccc23)n1 (stereo not given) + Cc1ccccc1N=Nc1ccc(NC(=O)c2ccnn2C)c(C)c1
IC50 (second compound 0.1 µM): > 10 µM | IC50 (second compound 0.316 µM): > 10 µM | IC50 (second compound 1 µM): > 10 µM | IC50 (second compound 3.16 µM): > 10 µM | IC50 (second compound 10 µM): > 10 µM | viability, T/C [1]: 92.1% | viability, T/C [2]: 101% | viability, T/C [3]: 92.2% | viability, T/C [4]: 97.3% | viability, T/C [5]: 98.8% | viability, T/C [6]: 102% | viability, T/C [7]: 99% | viability, T/C [8]: 87.6% | viability, T/C [9]: 109% | viability, T/C [10]: 88.4% | viability, T/C [11]: 86.8% | viability, T/C [12]: 99.1% | viability, T/C [13]: 104% | viability, T/C [14]: 99.4% | viability, T/C [15]: 95.8% | viability, T/C [16]: 88% | viability, T/C [17]: 88.4% | viability, T/C [18]: 81.5% | viability, T/C [19]: 86.8% | viability, T/C [20]: 85.7% | viability, T/C [21]: 95.5% | viability, T/C [22]: 78.6% | viability, T/C [23]: 83.2% | viability, T/C [24]: 80.4% | viability, T/C [25]: 85.4% | viability, T/C [26]: 89.1% | viability, T/C [27]: 87.4% | viability, T/C [28]: 84.8% | viability, T/C [29]: 78.4% | viability, T/C [30]: 75%

CCN(c1cc(-c2ccc(CN3CCOCC3)cc2)cc(C(=O)NCc2c(C)cc(C)[nH]c2=O)c1C)C1CCOCC1 + Cc1ccccc1N=Nc1ccc(NC(=O)c2ccnn2C)c(C)c1
IC50 (second compound 0.1 µM): > 3 µM | IC50 (second compound 0.316 µM): > 3 µM | IC50 (second compound 1 µM): > 3 µM | IC50 (second compound 3.16 µM): > 3 µM | IC50 (second compound 10 µM): > 3 µM | viability, T/C [31]: 91.2% | viability, T/C [32]: 88.2% | viability, T/C [33]: 93.7% | viability, T/C [34]: 84.5% | viability, T/C (second compound 0.1 µM, first compound 0.949 µM): 90.8% | viability, T/C (second compound 0.1 µM, first compound 3 µM): 90.4% | viability, T/C [35]: 82.1% | viability, T/C [36]: 93.3% | viability, T/C [37]: 86.2% | viability, T/C [38]: 77.3% | viability, T/C (second compound 0.316 µM, first compound 0.949 µM): 86.6% | viability, T/C (second compound 0.316 µM, first compound 3 µM): 84.2% | viability, T/C [39]: 88.6% | viability, T/C [40]: 83.2% | viability, T/C [41]: 89.5% | viability, T/C [42]: 94.3% | viability, T/C (second compound 1 µM, first compound 0.949 µM): 81% | viability, T/C (second compound 1 µM, first compound 3 µM): 99.6% | viability, T/C [43]: 76% | viability, T/C [44]: 77% | viability, T/C [45]: 77.2% | viability, T/C [46]: 74.5% | viability, T/C (second compound 3.16 µM, first compound 0.949 µM): 81% | viability, T/C (second compound 3.16 µM, first compound 3 µM): 82% | viability, T/C [47]: 72.2% | viability, T/C [48]: 84.3% | viability, T/C [49]: 85.9% | viability, T/C [50]: 71.7% | viability, T/C (second compound 10 µM, first compound 0.949 µM): 77.9% | viability, T/C (second compound 10 µM, first compound 3 µM): 73.1%

Nc1ncn(C2CC(O)C(CO)S2)c(=O)n1 (stereo not given) + Cc1ccccc1N=Nc1ccc(NC(=O)c2ccnn2C)c(C)c1
IC50 (second compound 0.1 µM): > 0.3 µM | IC50 (second compound 0.316 µM): > 0.3 µM | IC50 (second compound 1 µM): > 0.3 µM | IC50 (second compound 3.16 µM): > 0.3 µM | IC50 (second compound 10 µM): > 0.3 µM | viability, T/C (second compound 0.1 µM, first compound 0.000949 µM): 102% | viability, T/C (second compound 0.1 µM, first compound 0.003 µM): 87.6% | viability, T/C [31]: 82.9% | viability, T/C [32]: 71.4% | viability, T/C [33]: 85.5% | viability, T/C [34]: 75.5% | viability, T/C (second compound 0.316 µM, first compound 0.000949 µM): 85.5% | viability, T/C (second compound 0.316 µM, first compound 0.003 µM): 81.7% | viability, T/C [35]: 80.4% | viability, T/C [36]: 81.7% | viability, T/C [37]: 87.2% | viability, T/C [38]: 74.7% | viability, T/C (second compound 1 µM, first compound 0.000949 µM): 85.7% | viability, T/C (second compound 1 µM, first compound 0.003 µM): 84.4% | viability, T/C [39]: 86.3% | viability, T/C [40]: 78.3% | viability, T/C [41]: 80.4% | viability, T/C [42]: 85.4% | viability, T/C (second compound 3.16 µM, first compound 0.000949 µM): 83.4% | viability, T/C (second compound 3.16 µM, first compound 0.003 µM): 83.2% | viability, T/C [43]: 83.1% | viability, T/C [44]: 87% | viability, T/C [45]: 82.4% | viability, T/C [46]: 79.3% | viability, T/C (second compound 10 µM, first compound 0.000949 µM): 76% | viability, T/C (second compound 10 µM, first compound 0.003 µM): 69.9% | viability, T/C [47]: 92.1% | viability, T/C [48]: 81.2% | viability, T/C [49]: 83.3% | viability, T/C [50]: 76.5%
